Test results as given in patent publication US20110059947A1, “ALPHA 7 NICOTINIC AGONISTS AND ANTIPSYCHOTICS” (Targacept, Inc., priority 2008, published 2011).
Several values for one entry are separate records, joined by “and”; a condition that tells them apart may be missing. Identical values can stand only once.

Key:
5HT3 receptors [1] = target: T1, 5HT3 receptors (Homo sapiens, UniProt P46098); experiment: Functional activation at the human 5HT3 receptor; format: cell-based; settings: read-out: maximal response, functional activation of human 5HT3 receptor
T1 sequence (P46098 24-478): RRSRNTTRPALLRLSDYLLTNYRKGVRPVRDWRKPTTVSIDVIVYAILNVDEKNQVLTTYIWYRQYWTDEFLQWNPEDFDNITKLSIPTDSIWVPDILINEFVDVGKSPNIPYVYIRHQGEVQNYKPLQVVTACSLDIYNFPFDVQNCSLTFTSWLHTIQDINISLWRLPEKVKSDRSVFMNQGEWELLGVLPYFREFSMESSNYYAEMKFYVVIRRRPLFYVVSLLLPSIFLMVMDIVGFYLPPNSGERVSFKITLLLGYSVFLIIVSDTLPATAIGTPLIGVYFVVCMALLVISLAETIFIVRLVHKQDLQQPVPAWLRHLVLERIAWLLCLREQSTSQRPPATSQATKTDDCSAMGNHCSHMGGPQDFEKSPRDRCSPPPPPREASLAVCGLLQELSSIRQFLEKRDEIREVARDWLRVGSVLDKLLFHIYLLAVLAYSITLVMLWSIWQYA

human α4β2 sub-type = target: T2, human α4β2 sub-type (Homo sapiens, UniProt P17787+P43681); experiment: Functional activation in Xenopus oocytes (electrophysiology); format: cell-based
T2 construct: expressed in transfected cells; host or cells: Xenopus oocytes

human muscle receptors = target: T3, human muscle receptors (Homo sapiens, UniProt P02708+P07510+Q07001); experiment: Muscle function (Ca++ flux), TE-671 cells; format: cell-based; settings: human TE-671 cells, % of nicotine's Emax
T3 construct: expressed in appropriate rat and human cell lines; endogenous in cells

human α4β2 receptors = target: T4, human α4β2 receptors (Homo sapiens, UniProt P17787+P43681); experiment: [3H]-(S)-nicotine competition binding in SH-EP1 cellular membranes; settings: SH-EP1 cells
T4 construct: expressed in transfected cells; host or cells: SH-EP1

rats = experiment: Novel object recognition (NOR) in rats; format: in vivo, rat
Source text: The object recognition model is based on a rodent's spontaneous tendency to explore novel aspects of their environment and this exploratory activity can be an index for memory function (Ennaceur and Delacour, 1988). The NOR test measures the capacity to recognize an object presented on two occasions, some time apart. The test arena consisted of a 17.5×17.5″ clear Plexiglas™ with walls 12″ in height. The arena was enclosed in an opaque, sound-attenuating chamber and the doors (opening to the front side) remained open. […] On the first two days of this sub-acute dosing paradigm, administrations were followed 30 minutes later by an exploratory (habituation) trial (6 minutes) on Day 1 (no objects) and object recognition acquisition trial (3 minutes) on Day 2 (2 of the same objects). On the third day the final OR trial, or recall trial (3 minutes; one familiar, one novel object) was started at either 30 min, 2 h, 6 h, 18 h or 24 h after compound administration. For the recall trial, a video camera was positioned approximately 36″ from the unshielded side of the arena for videotaping of the animals' behaviors. These behaviors were subsequently hand-scored by a blinded observer assessing the time spent exploring a novel (object B) versus a familiar (object A) object during this recall exposure trial. Absolute exploration time for each object was recorded, and a % recognition index was calculated as follows: % RI=[(time investigating novel object)/(total time investigating both novel+familiar objects)] […] Where significant overall effects were found, post-hoc analyses were performed. P<0.05 was considered significant.

5HT3 receptors [2] = target: T5, 5HT3 receptors (Mus musculus, UniProt P23979); experiment: 5HT3 receptor radioligand binding, mouse receptor; settings: 10 μM
T5 sequence (P23979 24-489): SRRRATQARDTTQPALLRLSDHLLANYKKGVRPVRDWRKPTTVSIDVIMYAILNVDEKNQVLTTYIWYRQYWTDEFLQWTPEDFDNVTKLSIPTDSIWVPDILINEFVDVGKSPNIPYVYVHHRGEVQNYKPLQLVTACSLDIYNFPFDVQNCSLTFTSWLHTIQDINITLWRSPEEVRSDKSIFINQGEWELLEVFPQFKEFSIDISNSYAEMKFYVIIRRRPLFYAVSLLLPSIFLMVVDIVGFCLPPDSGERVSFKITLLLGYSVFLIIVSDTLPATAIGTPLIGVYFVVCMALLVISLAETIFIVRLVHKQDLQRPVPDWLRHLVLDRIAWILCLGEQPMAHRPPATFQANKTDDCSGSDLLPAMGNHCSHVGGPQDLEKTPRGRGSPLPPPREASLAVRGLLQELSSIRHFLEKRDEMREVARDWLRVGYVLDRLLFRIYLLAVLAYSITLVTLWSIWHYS

Sprague-Dawley rats = experiment: Apomorphine-induced impairment of pre-pulse inhibition; format: in vivo, rat; settings: Compound A 0.3 mg/kg s.c., apomorphine 1.0 mg/kg s.c., p<0.001
rat ganglion receptors = experiment: Ganglion function (Ca++ flux), PC-12 Shooter cells; format: cell-based; settings: rat PC-12 Shooter cells, % of nicotine's Emax
[3] = test system: non-nicotinic receptor classes; experiment: Broad receptor selectivity battery (Novascreen); settings: criterion: inhibition of receptor-selective ligand binding >50% at 10 μM
5HT3 receptors [4] = target: T1, 5HT3 receptors; experiment: 5HT3 receptor radioligand binding, human receptor; settings: 10 μM
th(tk-)/th(tk-) mice = experiment: Prepulse inhibition (PPI) and acoustic startle in th(tk-)/th(tk-) and control mice; format: in vivo
sigma site 2 = target: T6, sigma site 2 (Homo sapiens, UniProt Q5BJF2); experiment: Sigma site 2 binding (Novascreen)
T6 construct: Novascreen

opioid receptor = settings: read-out: Ki opioid site; dose-response assessment
human ganglion receptors = experiment: Ganglion function (Ca++ flux), SH-SY5Y cells; format: cell-based; settings: % of nicotine's Emax

O=C(N[C@@H]1C2CCN(CC2)[C@H]1Cc1cccnc1)c1cc2ccccc2o1 [Compound A, (2S,3R)—N-(2-((3-pyridinyl)methyl)-1-azabicyclo[2.2.2]oct-3-yl)benzofuran-2-carboxamide]
Emax at 100 µM (5HT3 receptors [1]): 15%
activation of human α4β2 (human α4β2 sub-type): no detectable activation
decreases in subsequent control responses to ACh (α4β2) (human α4β2 sub-type): no significant decreases
Muscle Function (Ca++ flux) % nicotine @ 10 uM (human muscle receptors; 10 uM): 5 % nicotine and 5 ± 2 % nicotine
Muscle Function (Ca++ flux) % nicotine @ 100 uM (human muscle receptors; 100 uM): 12 % nicotine and 12 ± 7 % nicotine
Ki (human α4β2 receptors): 2800 nM
time investigating novel versus familiar object (rats; rats, 0.3 mg/kg, 30 min, 2 h, 6 h and 18 h after final sub-acute (q.d. x3 days) administration): significantly more time investigating the novel object than the familiar object
time spent investigating the novel object (rats; rats, 0.3, 1 and 10 mg/kg p.o., 30 minutes after 3rd q.d. administration): significantly increased the time spent investigating the novel object
duration of working memory facilitation after third sub-acute daily administration (rats; young rats, 0.3 mg/kg): up to 18 hours
inhibition of radioligand binding at 5HT3, mouse receptor (5HT3 receptors [2]): 59 % inhibition
PPI deficits induced by apomorphine (Sprague-Dawley rats): significantly reversed PPI deficits
Ganglion Function (Ca++ flux) % nicotine @ 10 uM (rat ganglion receptors; 10 uM): 11 % nicotine and 11 ± 6 % nicotine
Ganglion Function (Ca++ flux) % nicotine @ 100 uM (rat ganglion receptors; 100 uM): 20 % nicotine and 20 ± 8 % nicotine
interactions with other non-nicotinic receptor classes [3]: minimal interactions
inhibition of radioligand binding at 5HT3, human receptor (5HT3 receptors [4]): 25 % inhibition
PPI or startle (th(tk-)/th(tk-) mice; Compound A 0.1 mg/kg given individually): little effect
PPI (th(tk-)/th(tk-) mice; control (wild type) mice, Compound A): no effect on control
startle response (th(tk-)/th(tk-) mice; th(tk-)/th(tk-) mice, Compound A): normalizes startle response
deficits in PPI (th(tk-)/th(tk-) mice; th(tk-)/th(tk-) mice, Compound A (0.1 and 0.3 mg/kg analyzed)): reverse deficits in PPI
PPI, main effect (th(tk-)/th(tk-) mice; transgenic th(tk-)/th(tk-) mice, Compound A 0.1 mg/kg alone): no significant main effect
inhibition of ligand binding, sigma site 2 (sigma site 2; 10 μM): 79 % inhibition
Ki (sigma site 2; dose-response assessment): 13 µM
Ki (opioid receptor): 13 µM
Ganglion Function (Ca++ flux) % nicotine @ 10 uM (human ganglion receptors; 10 uM): 6 % nicotine and 6 ± 2 % nicotine
Ganglion Function (Ca++ flux) % nicotine @ 100 uM (human ganglion receptors; 100 uM): 11 % nicotine and 11 ± 1 % nicotine
